Common to all, as to assay type: cell-based
In assay [1] the test system is human adenocarcinoma cells. Kind of assay: Recoding via quantification of pRB and P53, adenocarcinoma cells. Particulars: Table 6, peptide in association with PET. How it is done: (§1) The cells were first fixed for 20 min with 4% paraformaldehyde/PBS at 4° C. After fixation, the cells were permeabilized in PBS containing 1% Triton X-100 for 15 min. Protein immunofluorescent visualization was performed by first treating the cells with 1% (v/v) specific monoclonal antibodies for 1 hour at 37° C. Then the samples were incubated with Alexa Fluor® 568 or 647 (F(ab′)2 fragment of IgG(H+L)) during 30 min at room temperature. The cell nuclei were counterstained in 20 ng/mL DAPI for 10 min at room temperature.
(§2) For this type of quantification the freeware image analysis ImageJ® software was used. The raw image was first converted to an 8-bit file, and then the unsharp mask feature was used (settings 1:0.2) to remove the image background (rolling ball radius 10). After smoothing, the resulting image, which appears similar to the original photomicrograph but with minimal background, was then converted to a binary image by setting a threshold. Threshold values were determined empirically by selecting a setting, which gave the most accurate binary image for a subset of randomly selected photomicrographs. The cell area was determined by manual delineation on raw fluorescent images. Total contact area and mean contact area per cell were calculated by “analyse particules” in ImageJ®. A minimum of 50 cells per condition were analyzed. […]

Assay [2] relates to mesenchymal chondrosarcoma cells. Kind of assay: Recoding via quantification of pRB and P53, chondrosarcoma cells. The note with it: Table 6, peptide in association with PET. How it is done: as §1, §2
The test system of assay [3] is human rhabdosarcoma cells. As to the kind of experiment: Recoding via quantification of pRB and P53, rhabdosarcoma cells. Particulars: Table 6, peptide in association with PET. How it is done: as §1, §2
The test system of another assay is Paxillin. Kind of assay: Paxillin gene expression by RT-PCR in osteosarcoma cells. Particulars: PET carrier, after 24 hours. How it is done:
(§3) After 24 hours of culture, total RNA was extracted by using the RNeasy total RNA kit (Qiagen®) according to the manufacturer's instructions. Purified total RNA was used as a template in order to make cDNA by a reverse transcription reaction (Gibco Brl®) with random primers (Invitrogen®). The cDNA was then used as a template for a real-time PCR amplification in the presence of SYBR green reagents (Bio-Rad®) by using a thermocycler (iCycler, Biorad®). Data were analyzed with the iCycler IQ™® software and compared by the ΔΔCt method. Briefly, the mean Ct value of the target gene was normalized to its averaged Ct values of the housekeeping gene (GAPDH) to give a ΔCt value, which was then normalized to a control sample to obtain a ΔΔCt value. The results were obtained from two series of experiments performed in triplicate.
(§4) Neoplastic cells (in this example osteosarcoma cells) were cultured on pharmaceutical associations comprising PET as a bioactive carrier and one of GFR-binding compounds of SEQ ID NO: 12, 19, 30 or 39. After 24 hours, the Paxillin and Vinculin gene expression decreased as shown by RT-PCR (FIG. 9).

The next assay deals with Ras/MAP kinase. Kind of assay: Adhesion checkpoint activation, western blot of ERK phosphorylation in osteosarcoma cells. Particulars: PET carrier, after 24 hours. The protocol: (§5) After 24 hours of culture, cells were permeabilized (10% SDS, 25 mM NaCl, 10 nM pepstatin and 10 nM leupeptin in distilled water and loading buffer), boiled for 10 minutes and resolved by reducing PAGE (Invitrogen). Proteins were transferred onto nitrocellulose, blocked, and labeled with HRP-conjugated antibodies (Invitrogen). […] Phosphor-Smad1/5/8 was blotted by treating the nitrocellulose with monoclonal anti-p-Smad1/5/8 (Santa Cruz Biotechnology). For all of the experiments the western blot was performed in triplicate, along with an additional blot for actin and coomassie blue staining to ensure constant protein load among samples.
(§6) Neoplastic cells (in this example osteosarcoma cells) were cultured on pharmaceutical associations comprising PET as a bioactive carrier and one of GFR-binding compounds of SEQ ID NO: 12, 19, 30 or 39. The main signaling pathways include: Ras/MAP kinase, FAK/Src kinase and PIP2 which are decreased after 24 hours as shown by western blot quantifications (FIG. 8). […] Finally, a decrease of 3-phosphoinositide-dependent protein kinase 1 (PDK1) protein expression was also was observed (FIG. 8C).

Assay [4] can be described thus: Adhesion checkpoint activation, western blot of PDK1 in osteosarcoma cells. Particulars: PET carrier, after 24 hours. How it is done: as §5, §6
A further assay concerns Vinculin. As to the kind of experiment: Vinculin gene expression by RT-PCR in osteosarcoma cells. Particulars: PET carrier, after 24 hours. How it is done:
as §3, §4

The subject of assay [5] is Cyclin D (Cyclin D1, Cyclin D2 and Cyclin D3). Kind of assay: Cyclin D profile by RT-PCR in osteosarcoma cells. Particulars: PET carrier, after the first 30 min of cell culture.
Description: There are many ways to test, measure and represent the inhibitory effect of a given substance on the gene or protein expression of cyclins D, but for the purpose of the present disclosure, and for the avoidance of any doubts, the inhibition values of a given pharmaceutical association or composition as defined herein is a measure of the gene expression of cyclins D as provided by RT-PCR. It is to be understood that the values of the gene expression of cyclins D disclosed herein correspond to the total gene expression of all cyclins D present in the tested cell i.e. D1, D2 and D3 as known at the date of the present disclosure.
as §3
Neoplastic cells (in this example osteosarcoma cells) were cultured on pharmaceutical associations comprising PET as a bioactive carrier and one of GFR-binding compounds of SEQ ID NO: 12, 19, 30 or 39. […]

For the substance “RVPSTSSVPAEESNITVQIM (Non-cyclic GFR-binding peptide) [SEQ ID NO: 234]”, in assay [1], the “P53 (%)” value stood at 45% and the “pRB (%)” value stood at 22%.
For “GIPEPSSAPVDMRPVQIRKI (Non-cyclic GFR-binding peptide) [SEQ ID NO: 238]”, in that order: 40% and 23%.
Take “GIPEPSSAPVEEEPLTTLYY (Non-cyclic GFR-binding peptide) [SEQ ID NO: 232]”: in assay [1], the “P53 (%)” value is 21% and the “pRB (%)” value is reported as 13%.
Turning to “KIPKASSVSQQLEPISTLYL (Non-cyclic GFR-binding peptide) [SEQ ID NO: 223]”, in assay [2], the “P53 (%)” value came out at 29% and the “pRB (%)” value was 9%.
For the substance “AASKASSVPQRLRSVKVAKV (Non-cyclic GFR-binding peptide) [SEQ ID NO: 235]”, in assay [1], the “P53 (%)” value is given as 40% and the “pRB (%)” value is 26%.
“STPPTSSVPTEVSPINTLYF (Non-cyclic GFR-binding peptide) [SEQ ID NO: 224]”: in assay [2], the “P53 (%)” value is 26% and the “pRB (%)” value is 13%.
On to “AASKASSTPTDLNAISTLYF (Non-cyclic GFR-binding peptide) [SEQ ID NO: 216]”, for which, in assay [3], the “P53 (%)” value stood at 27% and the “pRB (%)” value came out at 19%.
In the case of “STPPTSSAPVGQSPISMLYI (Non-cyclic GFR-binding peptide) [SEQ ID NO: 220]”, in assay [2], the “P53 (%)” value is given as 34% and the “pRB (%)” value is recorded as 15%.
For “AASKASSSRVKMSPINVLYF (Non-cyclic GFR-binding peptide) [SEQ ID NO: 225]”, in assay [1], the “P53 (%)” value is 25% and the “pRB (%)” value is 12%.
In the case of “RVPSTSSVPEKMEPLTMLYY (Non-cyclic GFR-binding peptide) [SEQ ID NO: 231]”, in assay [1], the “P53 (%)” value is 22% and the “pRB (%)” value was 18%.
“AASKASSSRVELRSVKIAKV (Non-cyclic GFR-binding peptide) [SEQ ID NO: 210]”: in assay [3], the “P53 (%)” value came to 42% and the “pRB (%)” value was 22%.
As for “GIPEPSSVSQEESSLSTLFF (Non-cyclic GFR-binding peptide) [SEQ ID NO: 214]”, in assay [3], the “P53 (%)” value was found to be 31% and the “pRB (%)” value stood at 18%.
As to “RVPSTSSTQVKMSAISMLYL (Non-cyclic GFR-binding peptide) [SEQ ID NO: 213]”, in assay [3], the “P53 (%)” value is recorded as 26% and the “pRB (%)” value is 12%.
On to “SEQ ID NO: 12: GFR-binding compound of the sequence listing, tested on PET as bioactive carrier; sequence not shown in this part (KVPKASSVPTELSAISTLYL; Non-cyclic GFR-binding peptide)”, for which the Paxillin gene expression result with Paxillin is on record as “decreased”. Moreover, the “phosphorylation at Thr202 and Tyr204 on ERK” value in the assay with Ras/MAP kinase was “absence of phosphorylation”. The “3-phosphoinositide-dependent protein kinase 1 (PDK1) protein expression” value in assay [4] is listed as “decrease”. Moreover, in the assay on Vinculin, the Vinculin gene expression entry is “decreased”. Besides, the “Cyclin D gene expression (arithmetic mean of Cyclin D1, D2 and D3)” value in assay [5] is listed as “decreased”.
Take “GIPEPSSAPVGQEPLPMVYY (Non-cyclic GFR-binding peptide) [SEQ ID NO: 230]”: in assay [1], the “P53 (%)” value worked out at 30% and the “pRB (%)” value is given as 19%.
Turning to “STPPTSSTPTKMSNITTQIM (Non-cyclic GFR-binding peptide) [SEQ ID NO: 233]”, in assay [1], the “P53 (%)” value is given as 43% and the “pRB (%)” value was determined as 23%.
On to “KIPKASSTQVGQSATSILYY (Non-cyclic GFR-binding peptide) [SEQ ID NO: 219]”, for which, in assay [2], the “P53 (%)” value is reported as 31% and the “pRB (%)” value worked out at 14%.
Take “GIPEPSSVSQELSATSMLYY (Non-cyclic GFR-binding peptide) [SEQ ID NO: 218]”: in assay [2], the “P53 (%)” value is 28% and the “pRB (%)” value was determined as 17%.
Take “KIPKASSTQVRLRSVKTAKV (Non-cyclic GFR-binding peptide) [SEQ ID NO: 236]”: in assay [1], the “P53 (%)” value is 37% and the “pRB (%)” value amounted to 25%.
As for “KIPKASSVPTKMKPLSVLYV (Non-cyclic GFR-binding peptide) [SEQ ID NO: 226]”, in assay [1], the “P53 (%)” value turned out to be 31% and the “pRB (%)” value is listed as 16%.
For the substance “STPPTSSVSQKMKPLSILYV (Non-cyclic GFR-binding peptide) [SEQ ID NO: 228]”, in assay [1], the “P53 (%)” value is 26% and the “pRB (%)” value turned out to be 18%.
Take “RVPSTSSTQVDLNAISVLYF (Non-cyclic GFR-binding peptide) [SEQ ID NO: 217]”: in assay [3], the “P53 (%)” value was found to be 24% and the “pRB (%)” value is 18%.
With “KIPKASSSRVRLSSLSTLFF (Non-cyclic GFR-binding peptide) [SEQ ID NO: 215]”, in assay [3], the “P53 (%)” value was determined as 30% and the “pRB (%)” value was 19%.
Turning to “KIPKASSTQVRLRPVQIRKI (Non-cyclic GFR-binding peptide) [SEQ ID NO: 211]”, in assay [3], the “P53 (%)” value was 42% and the “pRB (%)” value was 19%.
For “KIPKASSVPAQLEPLPIVYY (Non-cyclic GFR-binding peptide) [SEQ ID NO: 229]”, in assay [1], the “P53 (%)” value is 31% and the “pRB (%)” value came out at 23%.
With “GIPEPSSAPTRLEPISMLYL (Non-cyclic GFR-binding peptide) [SEQ ID NO: 222]”, in assay [2], the “P53 (%)” value was 36% and the “pRB (%)” value was determined as 8%.
Consider “STPPTSSSRVQLSAISMLYL (Non-cyclic GFR-binding peptide) [SEQ ID NO: 212]”, for which, in assay [3], the “P53 (%)” value stood at 27% and the “pRB (%)” value was found to be 11%.
Turning to “SEQ ID NO: 19: GFR-binding compound of the sequence listing, tested on PET as bioactive carrier; sequence not shown in this part (RKIPKAGGVPTELSAISTLYL; Non-cyclic GFR-binding peptide)”, in the assay with Paxillin, the Paxillin gene expression result is given as “decreased”. In addition, in the assay with Ras/MAP kinase, the “phosphorylation at Thr202 and Tyr204 on ERK” value was “absence of phosphorylation”. The “3-phosphoinositide-dependent protein kinase 1 (PDK1) protein expression” value in assay [4] is reported as “decrease”. Moreover, in the assay with Vinculin, the Vinculin gene expression result is recorded as “decreased”. Moreover, in assay [5], the “Cyclin D gene expression (arithmetic mean of Cyclin D1, D2 and D3)” value is listed as “decreased”.
Consider “RVPSTSSAPTKMKPLSMLYV (Non-cyclic GFR-binding peptide) [SEQ ID NO: 227]”, for which, in assay [1], the “P53 (%)” value is 32% and the “pRB (%)” value was found to be 14%.
Take “KIPKASSTPTRLSPISMLFI (Non-cyclic GFR-binding peptide) [SEQ ID NO: 221]”: in assay [2], the “P53 (%)” value turned out to be 37% and the “pRB (%)” value is 21%.
Turning to “AASKASSVPEKMRPVQTRKI (Non-cyclic GFR-binding peptide) [SEQ ID NO: 237]”, in assay [1], the “P53 (%)” value came out at 42% and the “pRB (%)” value amounted to 22%.

For the origin of these results see patent publication US20220273759A1, “PHARMACEUTICAL ASSOCIATION FOR CONVERTING A NEOPLASTIC CELL INTO A NON-NEOPLASTIC CELL AND USES THEREOF” (HISTIDE AG, priority 2015, published 2022).
